Reference: patent US9452225B2, “GLP-1 prodrugs” (Novo Nordisk A/S, priority 2012, dated 2016)
Numbered stars: 1 amine (or outer) side, 2 acyl side, 3 side chain; on linkers, the order of the positions; unused ones are H or OH. Square brackets hold non-standard residues; d marks the D form. Side chains are listed from the residue outwards. Peptide text beside a SMILES is read from it. * marks the point of attachment. Decanoyl(10-(4-HOOC-PhO)) = O=C(O)c1ccc(OCCCCCCCCCC(=O)*)cc1; Lac(3-(imidazol-4-yl)) = O=C(O)[C@@H](O)Cc1c[nH]cn1; γGlu = O=C(O)[C@H](CCC(=O)[*:2])N[*:1]; NMeI = CC[C@H](C)[C@H](NC)C(=O)O; AEEA = NCCOCCOCC(=O)O

Columns and labels:
[1] = Prodrug half-life in vitro, buffer method; type: physicochemical; settings: 25 mM phosphate buffer pH 7.4, 37° C., 1.0 mg/mL; UPLC_A, or UPLC_B for compounds marked *; read-out: T½ in buffer (converted)
Description: (§1) The purpose of this example is to test the in vitro half-lives (T½) of the GLP-1 prodrugs of the invention, in comparison to conceptually different prodrugs. In what follows two in vitro methods are described, viz. a method conducted in buffer, and a method conducted in plasma.
Buffer: 25 mM Phosphate (Ionic strength: 154 mM, pH 7.4 at 37° C.)
NaH2PO4.2H2O (1.95 g, 12.5 mmol) and NaCl (2.61 g, 44.7 mmol) were dissolved in millipore water (approximately 450 mL) and adjusted to pH=7.44 at approximately 20° C. with concentrated NaOH and 1 M NaOH. Water was added to 500.00 mL.
The compound to be tested was dissolved in buffer to a concentration of 1.0 mg/mL and incubated at 37° C. Samples were taken at adequate intervals and the % parent drug compared to prodrug formed as function of time was evaluated by the UPLC method as referred to in Table 1 by comparing the areas under the curves for the two corresponding peaks. These UPLC methods are described in the general experimental section above (UPLC_A, and UPLC_B).
(§2) The half life of the prodrug (T½) was calculated from the slope of a linear fit to the curve of ln(% prodrug (Y)) as a function of time (t), as follows: Y=÷αt+k Math. 1 T½=ln(2)/α Math. 2 Plasma Method Buffer: 200 mM Phosphate, pH 7.4 at 37° C.
The resulting half-lives are set out in Table 1 below. For comparison, the T½ in buffer of native GLP-1(7-37) (His7 variant of SEQ ID NO: 1) was 13 minutes (0.2 hours).

[2] = Prodrug half-life in vitro, plasma method (minipig heparin plasma); type: in vitro ADME; settings: minipig heparin plasma 800 μL + 200 μL 200 mM phosphate pH 7.4, 37° C.; UPLC_A, or UPLC_B for compounds marked *; read-out: T½ in plasma (converted)
Description: as §1, §2
NaH2PO4.2H2O (15.61 g, 100 mmol) was dissolved in milliQ water (approximately 450 mL) and adjusted to pH=7.44 at approximately 20° C. with concentrated NaOH (aq) and 1 M NaOH (aq). Water was added to 500.00 mL.
Serum: Minipig Serum, Heparin-Plasma
Fresh blood was tapped from minipig into 9 mL LH lithium heparin Vacuette tubes from Greiner bio-one (catalogue number 455084). After cooling on ice it was centrifuged (10 min, 4° C., 3000 rpm/1942G) and the supernatant isolated and kept at −18° C. before use.
100 nmol of the compound to be tested was dissolved in 200 μL buffer, added to 800 μL plasma (centrifuged), and incubated at 37° C. Samples (50 μL) were drawn at appropriate intervals into 150 μL absolute EtOH. After a short stirring the sample was centrifuged and the supernatant transferred to the UPLC vial (10 μL injection).
The % parent drug compared to prodrug formed as a function of time was evaluated by UPLC, and the half-life calculated, both in the same way as described above under the Buffer method.

| SMILES | half-life at 1 mg/mL [1] [h] | half-life [2] [h] | half-life [1] [h] |
| --- | --- | --- | --- |
| CC[C@H](C)[C@H](NC)C(=O)N[C@H](C(=O)O[C@@H](Cc1c[nH]cn1)C(=O)N[C@@H](C)C(=O)N[C@@H](CCC(=O)O)C(=O)NCC(=O)N[C@H](C(=O)N[C@@H](Cc1ccccc1)C(=O)N[C@H](C(=O)N[C@@H](CO)C(=O)N[C@@H](CC(=O)O)C(=O)N[C@H](C(=O)N[C@@H](CO)C(=O)N[C@@H](CCCCNC(=O)COCCOCCNC(=O)COCCOCCNC(=O)CC[C@H](NC(=O)CCCCCCCCCOc1ccc(C(=O)O)cc1)C(=O)O)C(=O)N[C@@H](Cc1ccc(O)cc1)C(=O)N[C@@H](CC(C)C)C(=O)N[C@@H](CCC(=O)O)C(=O)N[C@@H](CCC(=O)O)C(=O)N[C@@H](CCC(N)=O)C(=O)N[C@@H](C)C(=O)N[C@H](C(=O)N[C@@H](CCCNC(=N)N)C(=O)N[C@@H](CCC(=O)O)C(=O)N[C@@H](Cc1ccccc1)C(=O)N[C@H](C(=O)N[C@@H](C)C(=O)N[C@@H](CCCCNC(=O)COCCOCCNC(=O)COCCOCCNC(=O)CC[C@H](NC(=O)CCCCCCCCCOc1ccc(C(=O)O)cc1)C(=O)O)C(=O)N[C@@H](CC(C)C)C(=O)N[C@H](C(=O)N[C@@H](CCCNC(=N)N)C(=O)NCC(=O)N[C@@H](CCCNC(=N)N)C(=O)NCC(=O)O)C(C)C)[C@@H](C)CC)C(C)C)C(C)C)[C@@H](C)O)[C@@H](C)O)C(C)C [Example 3] (H-[NMeI]V[Lac(3-(imidazol-4-yl))]AEGTFTSDVSK([AEEA-AEEA-γGlu-Decanoyl(10-(4-HOOC-PhO))])YLEEQAVREFIAK([AEEA-AEEA-γGlu-Decanoyl(10-(4-HOOC-PhO))])LVRGRG-OH) | 38.5 | 25.6 | – |
| CC[C@H](C)[C@H](N)C(=O)N[C@H](C(=O)O[C@@H](Cc1c[nH]cn1)C(=O)N[C@@H](C)C(=O)N[C@@H](CCC(=O)O)C(=O)NCC(=O)N[C@H](C(=O)N[C@@H](Cc1ccccc1)C(=O)N[C@H](C(=O)N[C@@H](CO)C(=O)N[C@@H](CC(=O)O)C(=O)N[C@H](C(=O)N[C@@H](CO)C(=O)N[C@@H](CCCCNC(=O)COCCOCCNC(=O)COCCOCCNC(=O)CC[C@H](NC(=O)CCCCCCCCCOc1ccc(C(=O)O)cc1)C(=O)O)C(=O)N[C@@H](Cc1ccc(O)cc1)C(=O)N[C@@H](CC(C)C)C(=O)N[C@@H](CCC(=O)O)C(=O)N[C@@H](CCC(=O)O)C(=O)N[C@@H](CCC(N)=O)C(=O)N[C@@H](C)C(=O)N[C@H](C(=O)N[C@@H](CCCNC(=N)N)C(=O)N[C@@H](CCC(=O)O)C(=O)N[C@@H](Cc1ccccc1)C(=O)N[C@H](C(=O)N[C@@H](C)C(=O)N[C@@H](CCCCNC(=O)COCCOCCNC(=O)COCCOCCNC(=O)CC[C@H](NC(=O)CCCCCCCCCOc1ccc(C(=O)O)cc1)C(=O)O)C(=O)N[C@@H](CC(C)C)C(=O)N[C@H](C(=O)N[C@@H](CCCNC(=N)N)C(=O)NCC(=O)N[C@@H](CCCNC(=N)N)C(=O)NCC(=O)O)C(C)C)[C@@H](C)CC)C(C)C)C(C)C)[C@@H](C)O)[C@@H](C)O)C(C)C [Example 3a] (H-IV[Lac(3-(imidazol-4-yl))]AEGTFTSDVSK([AEEA-AEEA-γGlu-Decanoyl(10-(4-HOOC-PhO))])YLEEQAVREFIAK([AEEA-AEEA-γGlu-Decanoyl(10-(4-HOOC-PhO))])LVRGRG-OH) | 7.5 | 5 | – |
| CC[C@H](C)[C@H](NC)C(=O)N[C@H](C(=O)O[C@@H](Cc1c[nH]cn1)C(=O)N[C@@H](C)C(=O)N[C@@H](CCC(=O)O)C(=O)NCC(=O)N[C@H](C(=O)N[C@@H](Cc1ccccc1)C(=O)N[C@H](C(=O)N[C@@H](CO)C(=O)N[C@@H](CC(=O)O)C(=O)N[C@H](C(=O)N[C@@H](CO)C(=O)N[C@@H](CCCCNC(=O)COCCOCCNC(=O)COCCOCCNC(=O)CC[C@H](NC(=O)CCCCCCCCCOc1ccc(C(=O)O)cc1)C(=O)O)C(=O)N[C@@H](Cc1ccc(O)cc1)C(=O)N[C@@H](CC(C)C)C(=O)N[C@@H](CCC(=O)O)C(=O)N[C@@H](CCC(=O)O)C(=O)N[C@@H](CCC(N)=O)C(=O)N[C@@H](C)C(=O)N[C@@H](C)C(=O)N[C@@H](CCCCNC(=O)COCCOCCNC(=O)COCCOCCNC(=O)CC[C@H](NC(=O)CCCCCCCCCOc1ccc(C(=O)O)cc1)C(=O)O)C(=O)N[C@@H](CCC(=O)O)C(=O)N[C@@H](Cc1ccccc1)C(=O)N[C@H](C(=O)N[C@@H](C)C(=O)N[C@@H](Cc1c[nH]c2ccccc12)C(=O)N[C@@H](CC(C)C)C(=O)N[C@H](C(=O)N[C@@H](CCC(N)=O)C(=O)NCC(=O)N[C@@H](CCCNC(=N)N)C(=O)NCC(=O)O)C(C)C)[C@@H](C)CC)C(C)C)[C@@H](C)O)[C@@H](C)O)C(C)C [Example 5] | – | 32.2 | 37.9 |
